Several values for one entry are separate records, joined by “and”; a condition that tells them apart may be missing. Equal entries are not always repeated.
Tested on: 653999-131-R-J2-PDC complex spheroids, growth % test/control
Assay: Anticancer human tumor 653999-131-R-J2-PDC patient-derived lung adenocarcinoma cell line growth inhibition [AhR]
Settings: for viability, T/C: stronger effect = lower value
Procedure, shortened: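 Complex tumor spheroids co-cultured with HUVEC and human MSC stroma; AhR antagonists tested in combination with standard-of-care and investigational agents. Top concentration at or near clinical Cmax (else 10 microM), half-log dilutions; growth expressed as percent test/control.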
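Note: spheroids exposed to agents for seven days.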
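Throughout, for viability, T/C: 100% = DMSO vehicle control viability.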

In the case of `NS(=O)(=O)OCC1CC(n2ccc3c(NC4CCc5ccccc54)ncnc32)CC1O` (configuration not stated), the viability, T/C (compound 0.0316 µM) is reported as 101% and 97.7% and 115%, the viability, T/C (compound 0.1 µM) is reported as 98.7% and 110% and 114% and the viability, T/C (compound 0.316 µM) is reported as 89.3% and 95.5% and 96%. The viability, T/C (compound 1 µM) was 89.8% and 104% and 105%, the viability, T/C (compound 3.16 µM) was 91.9% and 83.5% and 78.4% and the viability, T/C (compound 10 µM) was 53.4% and 61.8% and 55.4%. The IC50 (curve of compound) was > 10 µM.
With `CC(C)c1c(-c2ccccc2)nc2c(C#N)c[nH]n2c1=O` + Cc1cncc(-c2nc(NCCc3c[nH]c4ccccc34)c3ncn(C(C)C)c3n2)c1 the IC50 (curve of first compound, second compound 0.1 µM) was > 10 µM, the IC50 (curve of first compound, second compound 0.316 µM) was > 10 µM and the IC50 (curve of first compound, second compound 1 µM) was > 10 µM. The IC50 (curve of first compound, second compound 3.16 µM) was > 10 µM, the IC50 (curve of first compound, second compound 10 µM) was > 10 µM and the viability, T/C (second compound 0.1 µM, first compound 0.0316 µM) was 112%. For the same compound, the viability, T/C (second compound 0.1 µM, first compound 0.1 µM) was 99.8%, the viability, T/C (second compound 0.1 µM, first compound 0.316 µM) was 102% and the viability, T/C (second compound 0.1 µM, first compound 1 µM) was 95.8%. It also gave a viability, T/C (second compound 0.1 µM, first compound 3.16 µM) of 93.9%, a viability, T/C (second compound 0.1 µM, first compound 10 µM) of 102% and a viability, T/C (second compound 0.316 µM, first compound 0.0316 µM) of 115%. For the same compound, the viability, T/C (second compound 0.316 µM, first compound 0.1 µM) was 114%, the viability, T/C (second compound 0.316 µM, first compound 0.316 µM) was 120% and the viability, T/C (second compound 0.316 µM, first compound 1 µM) was 104%. For the same compound, the viability, T/C (second compound 0.316 µM, first compound 3.16 µM) was 97.7%, the viability, T/C (second compound 0.316 µM, first compound 10 µM) was 99.2% and the viability, T/C (second compound 1 µM, first compound 0.0316 µM) was 128%. The viability, T/C (second compound 1 µM, first compound 0.1 µM) was 118%, the viability, T/C (second compound 1 µM, first compound 0.316 µM) was 122% and the viability, T/C (second compound 1 µM, first compound 1 µM) was 136%. For the same compound, the viability, T/C (second compound 1 µM, first compound 3.16 µM) was 125%, the viability, T/C (second compound 1 µM, first compound 10 µM) was 116% and the viability, T/C (second compound 3.16 µM, first compound 0.0316 µM) was 128%. For the same compound, the viability, T/C (second compound 3.16 µM, first compound 0.1 µM) was 117%, the viability, T/C (second compound 3.16 µM, first compound 0.316 µM) was 121% and the viability, T/C (second compound 3.16 µM, first compound 1 µM) was 115%. The viability, T/C (second compound 3.16 µM, first compound 3.16 µM) was 129%, the viability, T/C (second compound 3.16 µM, first compound 10 µM) was 120% and the viability, T/C (second compound 10 µM, first compound 0.0316 µM) was 63.2%. The viability, T/C (second compound 10 µM, first compound 0.1 µM) was 58.8%, the viability, T/C (second compound 10 µM, first compound 0.316 µM) was 62.6% and the viability, T/C (second compound 10 µM, first compound 1 µM) was 63.7%. For the same compound, the viability, T/C (second compound 10 µM, first compound 3.16 µM) was 62.2% and the viability, T/C (second compound 10 µM, first compound 10 µM) was 63.7%.
